From patent US12383545B1, “Treatment of migraine” (priority 2018, dated 2025)

Tested on: patients with migraine (4 to 14 migraine/probable migraine headache days)
Experiment: Example 5: randomized double-blind placebo-controlled 12-week dose-regimen study (QD and BID), migraine/probable migraine (MPM) headache days efficacy
Type: in vivo, human
Settings: for At Least 50% Reduction in Mean Monthly MPM Headache Days, Non-responders / At Least 50% Reduction in Mean Monthly MPM Headache Days, Odds ratio vs. Placebo / At Least 50% Reduction in Mean Monthly MPM Headache Days, Responders / Change from Baseline in Mean Monthly Acute Medication Use Days, CFB MMRM LS Mean / Change from Baseline in Mean Monthly Acute Medication Use Days, CGP vs. Placebo LSMD / Change from Baseline in Mean Monthly Headache Days, CFB MMRM LS Mean / Change from Baseline in Mean Monthly Headache Days, CGP vs. Placebo LSMD / Change from Baseline in Mean Monthly MPM Headache Days, CFB MMRM LS Mean / Change from Baseline in Mean Monthly MPM Headache Days, CGP vs. Placebo LSMD: across the 12-Week Treatment Period, mITT Population; for Non-responders (at least 100% reduction in mean monthly MPM headache days not met), (%) / Non-responders (at least 100% reduction in mean monthly MPM headache days not met), n / Odds ratio vs. Placebo, at least 100% reduction in mean monthly MPM headache days / Responders (at least 100% reduction in mean monthly MPM headache days), (%) / Responders (at least 100% reduction in mean monthly MPM headache days), n: Weeks 1-4, mITT population
Procedure: In a multicenter, randomized, double-blind, placebo-controlled, parallel-group study designed to evaluate the efficacy, safety, and tolerability of multiple doses and doses regimens of atogepant for the prevention of migraine. The patients were randomized (2:1:2:1:2:1) to 1 of 6 treatment groups: placebo, atogepant 10 mg QD, atogepant 30 mg QD, atogepant 30 mg BID, atogepant 60 mg QD, and atogepant 60 mg BID.
This study consisted of a 4-week screening and baseline period and a 12-week double-blind treatment period, which was followed by a 4-week safety follow-up period. Total study duration is 20-weeks.
To be randomized, eligible patients had to be 18 to 75 years of age (inclusive), have a history of migraine with or without aura for at least 1 year consistent with a diagnosis according to the International Classification of Headache Disorders criteria, 3rd edition, beta version, have experienced 4 to 14 migraine/probable migraine headache days and <15 headache days in the 28-day baseline period. Patients who had clinically significant hematologic, endocrine, cardiovascular, cerebrovascular, pulmonary, renal, hepatic, gastrointestinal, or neurologic disease were excluded from the study.
A total of 834 patients were randomized to double-blind treatment (ITT population), and 825 patients took at least 1 dose of double-blind IP (safety population). […] The primary efficacy variable was the change from baseline in mean monthly migraine/probable migraine headache days across the 12-week treatment period. The secondary efficacy variables were the change from baseline in mean monthly headache days across the 12-week treatment period, proportion of patients with at least a 50% reduction in mean monthly migraine/probable migraine headache days across the 12-week treatment period, and the change from baseline in mean monthly acute medication use days across the 12-week treatment period.

SMILES: C[C@@H]1[C@H](c2c(F)ccc(F)c2F)C[C@H](NC(=O)c2cnc3c(c2)C[C@@]2(C3)C(=O)Nc3ncccc32)C(=O)N1CC(F)(F)F [atogepant]
- At Least 50% Reduction in Mean Monthly MPM Headache Days, Non-responders (Atogepant 10 mg QD): 39 (42.4) n (%)
- At Least 50% Reduction in Mean Monthly MPM Headache Days, Odds ratio vs. Placebo (Atogepant 10 mg QD): 1.50
- At Least 50% Reduction in Mean Monthly MPM Headache Days, Responders (Atogepant 10 mg QD): 53 (57.6) n (%)
- Change from Baseline in Mean Monthly Acute Medication Use Days, CFB MMRM LS Mean (Atogepant 10 mg QD): -3.71 days
- Change from Baseline in Mean Monthly Acute Medication Use Days, CGP vs. Placebo LSMD (Atogepant 10 mg QD): -1.30 days
- Change from Baseline in Mean Monthly Headache Days, CFB MMRM LS Mean (Atogepant 10 mg QD): -4.31 days
- Change from Baseline in Mean Monthly Headache Days, CGP vs. Placebo LSMD (Atogepant 10 mg QD): -1.38 days
- Change from Baseline in Mean Monthly MPM Headache Days, CFB MMRM LS Mean (Atogepant 10 mg QD): -4.00 days
- Change from Baseline in Mean Monthly MPM Headache Days, CGP vs. Placebo LSMD (Atogepant 10 mg QD): -1.15 days
- At Least 50% Reduction in Mean Monthly MPM Headache Days, Non-responders (Atogepant 30 mg BID): 33 (41.8) n (%)
- At Least 50% Reduction in Mean Monthly MPM Headache Days, Odds ratio vs. Placebo (Atogepant 30 mg BID): 1.83
- At Least 50% Reduction in Mean Monthly MPM Headache Days, Responders (Atogepant 30 mg BID): 46 (58.2) n (%)
- Change from Baseline in Mean Monthly Acute Medication Use Days, CFB MMRM LS Mean (Atogepant 30 mg BID): -3.77 days
- Change from Baseline in Mean Monthly Acute Medication Use Days, CGP vs. Placebo LSMD (Atogepant 30 mg BID): -1.35 days
- Change from Baseline in Mean Monthly Headache Days, CFB MMRM LS Mean (Atogepant 30 mg BID): -4.23 days
- Change from Baseline in Mean Monthly Headache Days, CGP vs. Placebo LSMD (Atogepant 30 mg BID): -1.30 days
- Change from Baseline in Mean Monthly MPM Headache Days, CFB MMRM LS Mean (Atogepant 30 mg BID): -4.23 days
- Change from Baseline in Mean Monthly MPM Headache Days, CGP vs. Placebo LSMD (Atogepant 30 mg BID): -1.39 days
- At Least 50% Reduction in Mean Monthly MPM Headache Days, Non-responders (Atogepant 30 mg QD): 85 (46.7) n (%)
- At Least 50% Reduction in Mean Monthly MPM Headache Days, Odds ratio vs. Placebo (Atogepant 30 mg QD): 1.46
- At Least 50% Reduction in Mean Monthly MPM Headache Days, Responders (Atogepant 30 mg QD): 97 (53.3) n (%)
- Change from Baseline in Mean Monthly Acute Medication Use Days, CFB MMRM LS Mean (Atogepant 30 mg QD): -3.86 days
- Change from Baseline in Mean Monthly Acute Medication Use Days, CGP vs. Placebo LSMD (Atogepant 30 mg QD): -1.44 days
- Change from Baseline in Mean Monthly Headache Days, CFB MMRM LS Mean (Atogepant 30 mg QD): -4.17 days
- Change from Baseline in Mean Monthly Headache Days, CGP vs. Placebo LSMD (Atogepant 30 mg QD): -1.24 days
- Change from Baseline in Mean Monthly MPM Headache Days, CFB MMRM LS Mean (Atogepant 30 mg QD): -3.76 days
- Change from Baseline in Mean Monthly MPM Headache Days, CGP vs. Placebo LSMD (Atogepant 30 mg QD): -0.91 days
- At Least 50% Reduction in Mean Monthly MPM Headache Days, Non-responders (Atogepant 60 mg BID): 33 (37.9) n (%)
- At Least 50% Reduction in Mean Monthly MPM Headache Days, Odds ratio vs. Placebo (Atogepant 60 mg BID): 2.03
- At Least 50% Reduction in Mean Monthly MPM Headache Days, Responders (Atogepant 60 mg BID): 54 (62.1) n (%)
- Change from Baseline in Mean Monthly Acute Medication Use Days, CFB MMRM LS Mean (Atogepant 60 mg BID): -3.64 days
- Change from Baseline in Mean Monthly Acute Medication Use Days, CGP vs. Placebo LSMD (Atogepant 60 mg BID): -1.22 days
- Change from Baseline in Mean Monthly Headache Days, CFB MMRM LS Mean (Atogepant 60 mg BID): -4.32 days
- Change from Baseline in Mean Monthly Headache Days, CGP vs. Placebo LSMD (Atogepant 60 mg BID): -1.39 days
- Change from Baseline in Mean Monthly MPM Headache Days, CFB MMRM LS Mean (Atogepant 60 mg BID): -4.14 days
- Change from Baseline in Mean Monthly MPM Headache Days, CGP vs. Placebo LSMD (Atogepant 60 mg BID): -1.29 days
- At Least 50% Reduction in Mean Monthly MPM Headache Days, Non-responders (Atogepant 60 mg QD): 85 (48.0) n (%)
- At Least 50% Reduction in Mean Monthly MPM Headache Days, Odds ratio vs. Placebo (Atogepant 60 mg QD): 1.42
- At Least 50% Reduction in Mean Monthly MPM Headache Days, Responders (Atogepant 60 mg QD): 92 (52.0) n (%)
- Change from Baseline in Mean Monthly Acute Medication Use Days, CFB MMRM LS Mean (Atogepant 60 mg QD): -3.53 days
- Change from Baseline in Mean Monthly Acute Medication Use Days, CGP vs. Placebo LSMD (Atogepant 60 mg QD): -1.11 days
- Change from Baseline in Mean Monthly Headache Days, CFB MMRM LS Mean (Atogepant 60 mg QD): -3.86 days
- Change from Baseline in Mean Monthly Headache Days, CGP vs. Placebo LSMD (Atogepant 60 mg QD): -0.94 days
- Change from Baseline in Mean Monthly MPM Headache Days, CFB MMRM LS Mean (Atogepant 60 mg QD): -3.55 days
- Change from Baseline in Mean Monthly MPM Headache Days, CGP vs. Placebo LSMD (Atogepant 60 mg QD): -0.70 days
- Non-responders (at least 100% reduction in mean monthly MPM headache days not met), (%) (Atogepant 10 mg QD (N = 92)): (81.5) %
- Non-responders (at least 100% reduction in mean monthly MPM headache days not met), n (Atogepant 10 mg QD (N = 92)): 75
- Odds ratio vs. Placebo, at least 100% reduction in mean monthly MPM headache days (Atogepant 10 mg QD (N = 92)): 6.39
- Responders (at least 100% reduction in mean monthly MPM headache days), (%) (Atogepant 10 mg QD (N = 92)): (18.5) %
- Responders (at least 100% reduction in mean monthly MPM headache days), n (Atogepant 10 mg QD (N = 92)): 17
- Non-responders (at least 100% reduction in mean monthly MPM headache days not met), (%) (Atogepant 30 mg BID (N = 79)): (83.5) %
- Non-responders (at least 100% reduction in mean monthly MPM headache days not met), n (Atogepant 30 mg BID (N = 79)): 66
- Odds ratio vs. Placebo, at least 100% reduction in mean monthly MPM headache days (Atogepant 30 mg BID (N = 79)): 5.23
- Responders (at least 100% reduction in mean monthly MPM headache days), (%) (Atogepant 30 mg BID (N = 79)): (16.5) %
- Responders (at least 100% reduction in mean monthly MPM headache days), n (Atogepant 30 mg BID (N = 79)): 13
- Non-responders (at least 100% reduction in mean monthly MPM headache days not met), (%) (Atogepant 30 mg QD (N = 182)): (80.2) %
- Non-responders (at least 100% reduction in mean monthly MPM headache days not met), n (Atogepant 30 mg QD (N = 182)): 146
- Odds ratio vs. Placebo, at least 100% reduction in mean monthly MPM headache days (Atogepant 30 mg QD (N = 182)): 7.05
- Responders (at least 100% reduction in mean monthly MPM headache days), (%) (Atogepant 30 mg QD (N = 182)): (19.8) %
- Responders (at least 100% reduction in mean monthly MPM headache days), n (Atogepant 30 mg QD (N = 182)): 36
